According to patent publication US9593149B2, “Amylin and calcitonin receptor agonist” (Novo Nordisk A/S, priority 2014, dated 2017):
Converted amounts (≈) assume the structure as drawn. Numbered stars: 1 amine (or outer) side, 2 acyl side, 3 side chain; on linkers, the order of the positions; unused ones are H or OH. Peptide text beside a SMILES is read from it. * marks the point of attachment. C20 diacid = O=C(O)CCCCCCCCCCCCCCCCCCC(=O)*; C18 diacid = O=C(O)CCCCCCCCCCCCCCCCC(=O)*; γGlu = O=C(O)[C@H](CCC(=O)[*:2])N[*:1]

Assay: Assay (IV) determination of solubility
Assay type: physicochemical
Method: Assay (IV)—Determination of Solubility
The mimylin peptide was dissolved in water at ˜500 nmol/ml and mixed 1:1 with a series of buffers (100 mM glycylglycine pH 3.0, 100 mM glycylglycine pH 4.0, 100 mM glycylglycine pH 5.0, 100 mM bistrispropane pH 6.0, 100 mM bistrispropane pH 6.5, 100 mM bistrispropane pH 7.0, 100 mM bistrispropane pH 7.5, 100 mM bistrispropane pH 8.0).

For `CC(C)C[C@H](NC(=O)CNC(=O)[C@H](CO)NC(=O)[C@H](C)NC(=O)CC[C@H](NC(=O)CCCCCCCCCCCCCCCCCCC(=O)O)C(=O)O)C(=O)N[C@@H](CO)C(=O)N[C@H](C(=O)N[C@@H](C)C(=O)N[C@H](C(=O)N[C@@H](CC(C)C)C(=O)NCC(=O)N[C@@H](CCCNC(=N)N)C(=O)N[C@@H](CC(C)C)C(=O)N[C@@H](CO)C(=O)N[C@@H](C)C(=O)N[C@@H](CCC(=O)O)C(=O)N[C@@H](CC(C)C)C(=O)N[C@@H](Cc1cnc[nH]1)C(=O)N[C@@H](CCC(=O)O)C(=O)N[C@@H](CC(C)C)C(=O)N[C@@H](C)C(=O)N[C@H](C(=O)N[C@@H](Cc1ccc(O)cc1)C(=O)N1CCC[C@H]1C(=O)N[C@@H](CCCNC(=N)N)C(=O)N[C@H](C(=O)N[C@@H](CCC(=O)O)C(=O)N[C@H](C(=O)NCC(=O)N[C@@H](CO)C(=O)NCC(=O)N[C@H](C(=O)N1CCC[C@H]1C(N)=O)[C@@H](C)O)[C@@H](C)O)[C@@H](C)O)[C@@H](C)O)C(C)C)[C@@H](C)O` [compound 98, [N-terminal(C20 diacid-gGlu), des1, 4G, 9V, 23Y, 30S, 31G, 32T]mimylin] ({C20 diacid-γGlu}-ASGLSTAVLGRLSAELHELATYPRTETGSGTP-NH2), the Solubility (pH 3.0) was “≧200 μM”, the Solubility (pH 4.0) was “≧200 μM” and the Solubility (pH 5.0) was “≧200 μM”. For the same molecule, the Solubility (pH 6.0) was “≧200 μM”, the Solubility (pH 6.5) was “≧200 μM” and the Solubility (pH 7.0) was “≧200 μM”. The Solubility (pH 7.5) was “≧200 μM” and the Solubility (pH 8.0) was “≧200 μM”.
With `CC(C)C[C@H](NC(=O)CNC(=O)[C@H](CO)NC(=O)[C@H](C)NC(=O)CC[C@H](NC(=O)CCCCCCCCCCCCCCCCCCC(=O)O)C(=O)O)C(=O)N[C@@H](CO)C(=O)N[C@H](C(=O)N[C@@H](C)C(=O)N[C@@H](C)C(=O)N[C@@H](CC(C)C)C(=O)NCC(=O)N[C@@H](CCCNC(=N)N)C(=O)N[C@@H](CC(C)C)C(=O)N[C@@H](CO)C(=O)N[C@@H](C)C(=O)N[C@@H](CCC(=O)O)C(=O)N[C@@H](CC(C)C)C(=O)N[C@@H](Cc1cnc[nH]1)C(=O)N[C@@H](CCC(=O)O)C(=O)N[C@@H](CC(C)C)C(=O)N[C@@H](C)C(=O)N[C@H](C(=O)N[C@@H](Cc1ccc(O)cc1)C(=O)N1CCC[C@H]1C(=O)N[C@@H](CCCNC(=N)N)C(=O)N[C@H](C(=O)N[C@@H](CCC(=O)O)C(=O)N[C@H](C(=O)NCC(=O)N[C@@H](CO)C(=O)NCC(=O)N[C@@H](CO)C(=O)N1CCC[C@H]1C(N)=O)[C@@H](C)O)[C@@H](C)O)[C@@H](C)O)[C@@H](C)O` [compound 79, [N-terminal(C20 diacid-gGlu), des1, 4G, 23Y, 30S, 31G]mimylin] ({C20 diacid-γGlu}-ASGLSTAALGRLSAELHELATYPRTETGSGSP-NH2) the Solubility (pH 3.0) was “≧200 μM”, the Solubility (pH 4.0) was “≧200 μM” and the Solubility (pH 5.0) was “≧200 μM”. For the same molecule, the Solubility (pH 6.0) was “≧200 μM”, the Solubility (pH 6.5) was “≧200 μM” and the Solubility (pH 7.0) was “≧200 μM”. The Solubility (pH 7.5) was “≧200 μM” and the Solubility (pH 8.0) was “≧200 μM”.
For `CC(C)C[C@H](NC(=O)[C@H](C)NC(=O)[C@@H](NC(=O)[C@H](CO)NC(=O)[C@H](CC(C)C)NC(=O)[C@H](CCC(=O)O)NC(=O)[C@H](CO)NC(=O)[C@H](C)NC(=O)[C@H](CCC(=O)O)NC(=O)CCCCCCCCCCCCCCCCC(=O)O)[C@@H](C)O)C(=O)N[C@@H](CC(C)C)C(=O)NCC(=O)N[C@@H](CCCNC(=N)N)C(=O)N[C@@H](CC(C)C)C(=O)N[C@@H](CO)C(=O)N[C@@H](C)C(=O)N[C@@H](CCC(=O)O)C(=O)N[C@@H](CC(C)C)C(=O)N[C@@H](Cc1cnc[nH]1)C(=O)N[C@@H](CCC(=O)O)C(=O)N[C@@H](CC(C)C)C(=O)N[C@@H](C)C(=O)N[C@H](C(=O)N[C@@H](CC(C)C)C(=O)N1CCC[C@H]1C(=O)N[C@@H](CCCNC(=N)N)C(=O)N[C@H](C(=O)N[C@@H](CCC(=O)O)C(=O)N[C@H](C(=O)NCC(=O)N1CCC[C@H]1C(=O)N[C@@H](CCC(=O)O)C(=O)N[C@@H](CO)C(=O)N1CCC[C@H]1C(N)=O)[C@@H](C)O)[C@@H](C)O)[C@@H](C)O` [compound 14, [N-terminal(C18 diacid), 9L]mimylin] ({C18 diacid}-EASELSTALLGRLSAELHELATLPRTETGPESP-NH2), the Solubility (pH 3.0) was “≧200 μM”, the Solubility (pH 4.0) was “≧200 μM” and the Solubility (pH 5.0) was “≧200 μM”. For the same molecule, the Solubility (pH 6.0) was “≧200 μM”, the Solubility (pH 6.5) was “≧200 μM” and the Solubility (pH 7.0) was “≧200 μM”. For the same molecule, the Solubility (pH 7.5) was “≧200 μM” and the Solubility (pH 8.0) was “≧200 μM”.
With `CC(C)C[C@H](NC(=O)[C@H](C)NC(=O)[C@H](C)NC(=O)[C@@H](NC(=O)[C@H](CO)NC(=O)[C@H](CC(C)C)NC(=O)[C@H](CCC(=O)O)NC(=O)[C@H](CO)NC(=O)[C@H](C)NC(=O)CC[C@H](NC(=O)CCCCCCCCCCCCCCCCCCC(=O)O)C(=O)O)[C@@H](C)O)C(=O)NCC(=O)N[C@@H](CCCNC(=N)N)C(=O)N[C@@H](CC(C)C)C(=O)N[C@@H](CO)C(=O)N[C@@H](C)C(=O)N[C@@H](CCC(=O)O)C(=O)N[C@@H](CC(C)C)C(=O)N[C@@H](Cc1cnc[nH]1)C(=O)N[C@@H](CCC(=O)O)C(=O)N[C@@H](CC(C)C)C(=O)N[C@@H](CO)C(=O)N[C@H](C(=O)N[C@@H](Cc1ccc(O)cc1)C(=O)N1CCC[C@H]1C(=O)N[C@@H](CCCNC(=N)N)C(=O)N[C@H](C(=O)N[C@@H](CCC(=O)O)C(=O)N[C@H](C(=O)NCC(=O)N[C@@H](CO)C(=O)NCC(=O)N[C@@H](CO)C(=O)N1CCC[C@H]1C(N)=O)[C@@H](C)O)[C@@H](C)O)[C@@H](C)O` [compound 82, [N-terminal(C20 diacid-gGlu), des1, 21S, 23Y, 30S, 31G]mimylin] ({C20 diacid-γGlu}-ASELSTAALGRLSAELHELSTYPRTETGSGSP-NH2) the Solubility (pH 3.0) was “≧200 μM”, the Solubility (pH 4.0) was “≧200 μM” and the solubility at 18 h (pH 5.0) was 1 µM (≈ 3.74 µg/mL). The Solubility (pH 6.0) was “≧200 μM”, the Solubility (pH 6.5) was “≧200 μM” and the Solubility (pH 7.0) was “≧200 μM”. For the same molecule, the Solubility (pH 7.5) was “≧200 μM” and the Solubility (pH 8.0) was “≧200 μM”.
For `CC(C)C[C@H](NC(=O)[C@H](C)NC(=O)[C@H](C)NC(=O)[C@@H](NC(=O)[C@H](CO)NC(=O)[C@H](CC(C)C)NC(=O)[C@H](CCC(=O)O)NC(=O)[C@H](CO)NC(=O)[C@H](C)NC(=O)CC[C@H](NC(=O)CCCCCCCCCCCCCCCCCCC(=O)O)C(=O)O)[C@@H](C)O)C(=O)NCC(=O)N[C@@H](Cc1cnc[nH]1)C(=O)N[C@@H](CC(C)C)C(=O)N[C@@H](CO)C(=O)N[C@@H](C)C(=O)N[C@@H](CCC(=O)O)C(=O)N[C@@H](CC(C)C)C(=O)N[C@@H](Cc1cnc[nH]1)C(=O)N[C@@H](CCC(=O)O)C(=O)N[C@@H](CC(C)C)C(=O)N[C@@H](C)C(=O)N[C@H](C(=O)N[C@@H](CC(C)C)C(=O)N1CCC[C@H]1C(=O)N[C@@H](Cc1cnc[nH]1)C(=O)N[C@H](C(=O)N[C@@H](CCC(=O)O)C(=O)N[C@H](C(=O)NCC(=O)N[C@@H](CO)C(=O)NCC(=O)N[C@@H](CO)C(=O)N1CCC[C@H]1C(N)=O)[C@@H](C)O)[C@@H](C)O)[C@@H](C)O` [compound 84, [N-terminal(C20 diacid-gGlu), des1, 12H, 25H, 30S, 31G]mimylin] ({C20 diacid-γGlu}-ASELSTAALGHLSAELHELATLPHTETGSGSP-NH2), the Solubility (pH 3.0) was “≧200 μM”, the Solubility (pH 4.0) was “≧200 μM” and the Solubility (pH 5.0) was “≧200 μM”. The Solubility (pH 6.0) was “≧200 μM”, the Solubility (pH 6.5) was “≧200 μM” and the Solubility (pH 7.0) was “≧200 μM”. For the same molecule, the Solubility (pH 7.5) was “≧200 μM” and the Solubility (pH 8.0) was “≧200 μM”.
